Assay results from patent US20080235824A1, “Use of Esterase Genes as Selectable Markers for Transforming Plant Cells” (priority 2006, published 2008).

Legend:
[1] = system: geranium petiole explants; experiment: Survival of geranium petiole explants on regeneration medium with detergents; type: cell-based, Pelargonium X hortorum; conditions: for Survival of geranium petiole explants on regeneration medium: surviving/total explants
Method: Tween 20, a nonionic, fatty acid ester detergent, was evaluated as a potential selective agent for use in geranium (Pelargonium X hortorum) transformation experiments by placing geranium petiole explants into tissue culture with the addition to Tween 20 to the regeneration (shooting) medium normally used in geranium transformations (Robichon et al., 1995). Tween 20 was added at three concentrations: 1%, 0.1% and 0.01%. Each treatment consisted of 40 sterilized petiole explants placed in four tissue culture plates carrying 10 explants each. Survival of the explants was assayed weekly over four weeks on these media. Potential selective agent Span 20, also a nonionic, fatty acid ester detergent, was similarly evaluated, except that concentrations of 1%, 0.5% and 0.25% were evaluated over a twelve week period of time. The nonionic detergent Triton X-100, which is not a fatty acid ester detergent, was included for comparative purposes.

tomato leaf explants = experiment: Survival of tomato leaf explants on regeneration medium with detergents; type: cell-based, Lycoperisicon esculentum; conditions: 1% detergent; for Survival of tomato leaf explants on regeneration medium: surviving/total explants
Method: Tween 20 was similarly evaluated as a potential selective agent for use in tomato (Lycoperisicon esculentum) transformations by placing tomato leaf explants placed into tissue culture; Tween 20 was added to tomato regeneration (shooting) medium normally used in tomato transformations (Riggs et al., 2001) at a 1% concentration. Each treatment consisted of 40 sterilized leaf explants placed in four tissue culture plates carrying 10 explants each. Survival of the explants was assayed weekly over four weeks on these media.

[2] = system: tomato cultivar Micro-Tom leaf explants; experiment: Agrobacterium transformation of tomato with selection on detergent or kanamycin; type: cell-based, Lycopersicon esculentum; conditions: for No. of independent calli forming shoots / No. of rooted shoots / Transformation frequency (%): tomato Micro-Tom, pIPG768 bovine PGE; for Transformation frequency (%): confirmed by PCR
Text: Transgenic tomato (Lycopersicon esculentum) cultivar “Micro-Tom” plants were created using the Agrobacterium tumefaciens DNA delivery method [Riggs et al., 2001; Sun et al., 2006] using pIPG768. Selection was either on 1% Tween 20 added to both shoot and root regeneration media. As controls for comparative purposes, 100 micrograms/ml kanamycin was used.

[3] = system: tobacco cultivar Xanthi leaf explants; experiment: Agrobacterium transformation of tobacco with selection on detergent or kanamycin; type: cell-based, Nicotiana tabacum; conditions: for Transformation frequency (%): confirmed by PCR
Text: Transgenic tobacco (Nicotiana tabacum) cultivar “Xanthi” plants were created using the Agrobacterium tumefaciens DNA delivery method [Horsch et al., 1985] using pIPG833. Selection was on 1% or on 0.05% Tween 20 added to both shoot and root regeneration media. As a control for comparative purposes, pIPG786 was used (carrying the nptII gene for kanamycin resistance) for transformation and 100 micrograms/ml kanamycin was used for selection.
Transgenic tobacco (Nicotiana tabacum) cultivar “Xanthi” plants were created using the Agrobacterium tumefaciens DNA delivery method [Horsch et al., 1985] using pIPG833. Selection was on 1% or on 0.05% Span 20 added to both shoot and root regeneration media.
Transgenic tobacco (Nicotiana tabacum) cultivar “Xanthi” plants were created using the Agrobacterium tumefaciens DNA delivery method [Horsch et al., 1985] using pIPG875. Selection was on 1% Span 20 added to the shoot regeneration medium and 0.05% Span 20 added to the root regeneration medium.

rooting tomato plants = experiment: Root growth of rooting tomato plants on 1% Tween 20 medium; type: in vivo
Text: The plant on the left, labeled “731”, was transformed using kanamycin selection and the kanamycin resistance gene driven by the 35S promoter on pIPG731 (ie., “empty” vector, without a lipase gene). The plant on the right, labeled “768”, was similarly transformed using kanamycin selection and the kanamycin resistance gene driven by the 35S promoter on pIPG768 (carrying a lipase gene). Both plants were rooted, kanamycin resistant transformants. Both plants, with roots removed to ca. 1-4 mm from the base, were transferred to rooting medium containing 1% Tween 20. After one week, the roots of both plants had grown to about the extent of the pIPG731 transformed plant, and the small ink marks were placed on the plates to indicate the extent of the root growth. Two weeks later, the roots on the plant transformed with pIPG731 had ceased to elongate and its roots started to appear brown at the growing tips, while the roots on the plant transformed with pIPG768 continued growing.
In order to test if the rooting medium inhibited or killed nontransgenic tomato that were rooting, regenerating nontransgenic tomato plants that were rooting, as well as transgenic tomato plants carrying pIPG678 that were rooting were placed on 1% Tween 20 medium.

[4] = system: tobacco cultivar Xanthi leaf explants; experiment: Agrobacterium transformation of tobacco with selection on detergent or kanamycin; type: cell-based, Nicotiana tabacum; conditions: pIPG833 bovine PGE, 0.5% Tween, 73 explants
[5] = 1% Tween in shoot and root media, Exp. 1, 253 explants
[6] = tobacco Xanthi, pIPG833 bovine PGE, 1% Tween, 73 explants

Substance: Tween 20
- Survival of geranium petiole explants on regeneration medium ([1]; 0.01% detergent, Week 1): 33/40
- Survival of geranium petiole explants on regeneration medium ([1]; 0.01% detergent, Week 2): 27/40
- Survival of geranium petiole explants on regeneration medium ([1]; 0.01% detergent, Week 3): 20/40
- Survival of geranium petiole explants on regeneration medium ([1]; 0.01% detergent, Week 4): 0/40
- Survival of geranium petiole explants on regeneration medium ([1]; 0.1% detergent, Week 1): 31/40
- Survival of geranium petiole explants on regeneration medium ([1]; 0.1% detergent, Week 2): 10/40
- Survival of geranium petiole explants on regeneration medium ([1]; 0.1% detergent, Week 3): 0/40
- Survival of geranium petiole explants on regeneration medium ([1]; 0.1% detergent, Week 4): 0/40
- Survival of geranium petiole explants on regeneration medium ([1]; 1% detergent, Week 1): 10/40
- Survival of geranium petiole explants on regeneration medium ([1]; 1% detergent, Week 2): 0/40
- Survival of geranium petiole explants on regeneration medium ([1]; 1% detergent, Week 3): 0/40
- Survival of geranium petiole explants on regeneration medium ([1]; 1% detergent, Week 4): 0/40
- Killing of geranium explants in tissue culture (in words) ([1]; summary of Table 1): completely killed all geranium explants in four weeks, even at the lowest level (0.01%) tested
- Survival of tomato leaf explants on regeneration medium (tomato leaf explants; Week 1): 8/40
- Survival of tomato leaf explants on regeneration medium (tomato leaf explants; Week 2): 8/40
- Survival of tomato leaf explants on regeneration medium (tomato leaf explants; Week 3): 3/40
- Survival of tomato leaf explants on regeneration medium (tomato leaf explants; Week 4): 0/40
- Killing of tomato explants in tissue culture (in words) (tomato leaf explants; summary of Table 2): completely killed all tomato explants in four weeks
- Share of tomato leaf material provided with bovine PGE on pIPG768 producing green shoots ([2]; regeneration medium with 1% Tween 20): nearly half
- Fate of tomato leaf material provided with empty vector control plasmid ([2]; regeneration medium with 1% Tween 20, 30 days of selection): either died or produced a small amount of brown callus that died
- No. of independent calli forming shoots [2, 5]: 25
- No. of rooted shoots [2, 5]: 25
- Transformation frequency (%) ([2]; 1% Tween, Exp. 1, 253 explants): 7%
- No. of independent calli forming shoots ([2]; 1% Tween, Exp. 2, 204 explants): 15
- No. of rooted shoots ([2]; 1% Tween, Exp. 2, 204 explants): 15
- Transformation frequency (%) ([2]; 1% Tween, Exp. 2, 204 explants): 4%
- No. of independent calli forming shoots ([2]; 1% Tween, Exp. 3, 275 explants): 48
- No. of rooted shoots ([2]; 1% Tween, Exp. 3, 275 explants): 48
- Transformation frequency (%) ([2]; 1% Tween, Exp. 3, 275 explants): 4%
- Tissue provided with pIPG833 producing shoots ([3]; regeneration medium with 0.05% detergent): 100%
- Tobacco leaf material provided with bovine PGE on pIPG833 producing green shoots ([3]; regeneration medium with 1% detergent): 16%
- Transformation efficiency ([3]; tobacco Xanthi, pIPG833, detergent at the 0.05% level): 6%
- No. of independent calli forming shoots ([3]; tobacco Xanthi, pIPG833 bovine PGE, 0.5% Tween, 73 explants): 73
- No. of independent calli forming shoots ([3]; tobacco Xanthi, pIPG833 bovine PGE, 1% Tween in shoot and root media, 73 explants): 12
- No. of rooted shoots [3, 6]: 12
- Transformation frequency (%) [3, 6]: 5%
- Transformation frequency (%) ([3]; tobacco Xanthi, pIPG833 bovine PGE, 1% Tween, 73 explants, listed as Tween): 5%
- Growth of transgenic tomato plants expressing bovine PGE (rooting tomato plants): did not affect growth
- Root growth of nontransgenic rooting tomato plants (rooting tomato plants): completely and almost immediately inhibited root growth
- No. of rooted shoots [4]: 73
- Transformation frequency (%) ([4]; confirmed by PCR): 6%
